Measurements published in patent US20170020838A1, “TREATMENT FOR RESPIRATORY DISEASE” (MUCOKINETICA LIMITED, priority 2014, published 2017).

Experiments:
[1] = tested on: ciliary transport of pig airway mucus secretions on the ex vivo pig trachea; assay: Ciliary transport of mucus secretions (tracheal mucus velocity) on ex vivo normal pig trachea; settings: for time of maximum transport speed following initiation of treatment / first time point with increased ciliary transport compared to BSS controls: 0.1 mM UTP; for first time point where increased ciliary transport is observed (class summary): Classes 2 and 3, after application of the treatment; for first time point with increased ciliary transport compared to BSS controls: applied 10 min in BSS: 10^−4 M amiloride, +50 mM-NaCl, 100 mosM-mannitol, 100 mosM-sodium gluconate, combinations with 10^−5M Rx; for onset and duration profile of increased ciliary transport of secretions: normal pig trachea, single 10 min treatment; for class of ciliary transport enhancer: three classes of ENaC regulating substances
Procedure: The lumen of each trachea was cleaned by gentle irrigation with BSS. Tracheas were opened longitudinally with scissors along the posterior aspect and mounted with the posterior aspect upwards in a moist air-tight box. An aliquot of pig airway mucus approximately 3 mm diameter was placed on the mucosal surface close to the distal end of each trachea. Tracheal mucus velocity (TMV mm/min) was measured by recording the distance moved, towards the laryngeal end of the trachea, in a given time. At the start of the study three measurements of TMV were made for each trachea to establish a baseline rate for the trachea. Solutions were then pipetted onto the luminal mucosal surface of tracheas for 10 min; BSS control tracheas (open circles; n=6); 10^−4 M amiloride in BSS (closed squares; n=6). Excess solution was then tipped off the mucosal surface and measurement of TMV repeated. TMV results at each time point are expressed as % of the baseline TMV, ciliary transport index (mean±SD).
(§1) Pig tracheas (from larynx to carina) from normal wild type animals were obtained from a local abattoir or Veterinary University. Transgenic CF piglets were produced as described by Klymiuk et al. 2012, and tracheas were obtained at a Veterinary University. The lumen of each trachea was cleaned by gentle irrigation with BSS. Tracheas were opened longitudinally with scissors along the posterior aspect and mounted with the posterior aspect upwards in a moist air-tight box. An aliquot of pig airway mucus approximately 3 mm diameter was placed on the mucosal surface close to the distal end of each trachea. Tracheal mucus velocity (TMV mm/min) was measured by recording the distance moved, towards the laryngeal end of the trachea, in a given time. At the start of a study three measurements of TMV were made for each trachea to establish a baseline rate for the trachea. Solutions were then pipetted onto the luminal mucosal surface of tracheas for 10 min. Then excess solution was tipped off the mucosal surface and measurement of TMV repeated. TMV results at each time point are expressed as % of the baseline TMV, ciliary transport index (mean±SD).

kidney sodium channel = settings: cortical collecting duct of the rabbit kidney; Muto et al. 1993; cited from earlier work
[2] = tested on: ciliary transport of pig airway mucus secretions on the ex vivo trachea of transgenic CF piglets; assay: Ciliary transport of mucus secretions on ex vivo trachea of transgenic CF piglets; design: speed of ciliary transport at the first three time points (25, 40 and 55 min), day 1: dose or concentration left out as unconfirmed
Procedure: FIG. 13 Study of the effects of 6-amidino-2-napthyl 4-guanidinobenzoate in BSS, and a combination of hyperosmotic saline and 6-amidino-2-napthyl 4-guanidinobenzoate in BSS on ciliary transport of pig airway mucus secretions on the ex vivo trachea of transgenic CF piglets. Transgenic CF piglets were produced as described by Klymiuk et al. 2012, and tracheas obtained at a Veterinary University. Study methods were otherwise as described in FIG. 10. Ciliary transport index (mean) was measured over two days with a second treatment period at the start of the second day.
as §1

ENaC = settings: human airway epithelial cells; Rasgado et al. 2009 & 2013; cited from earlier work

| SMILES | time of maximum transport speed following initiation of treatment ([1]; 10^−4 M amiloride) [min] | first time point where increased ciliary transport is observed (class summary) [1] [min] | first time point with increased ciliary transport compared to BSS controls [1] [min] | onset and duration profile of increased ciliary transport of secretions [1] | class of ciliary transport enhancer [1] | action on the kidney sodium channel (kidney sodium channel) | speed of ciliary transport at the first three time points (25, 40 and 55 min), day 1 ([2]; in BSS, 10 min) | speed of ciliary transport at the first time point (25 min), day 2 ([2]; second 10 min treatment with 10^−5 M at 14 h 10 min) | onset and duration profile of increased ciliary transport, both days ([2]; transgenic CF pig tracheas) | ciliary transport speed at the first two time points (25 and 40 min) compared to BSS controls ([1]; 10^−5M in BSS) | ciliary transport at 24 h following exposure to the treatment (class summary) ([1]; Class 3) | dose of maximum increase in ciliary transport ([1]; at 3 h 40 min, tested 10^−9 M to 10^−5 M) | difference from BSS control tracheas at 40 min, 55 min and 1 h 10 min ([1]; 10^−4 M amiloride) | duration of stimulation of ciliary transport ([1]; 10^−4 M amiloride) | time by which transport speed returned to control levels ([1]; 10^−4 M amiloride) [min] | stimulated ciliary transport through to (last time point) ([1]; 10^−4 M amiloride in BSS applied 10 min) [min] | onset of increased ciliary transport of secretions (class summary) ([1]; Class 1) | return to control transport rate (class summary) ([1]; Class 1) [min] | peak increase in the rate of ciliary transport (class summary) ([1]; Classes 1 to 3 of ciliary transport enhancers) [%] | effect of hyperosmotic concentrations on ENaC activity (ENaC) |
| --- | --- | --- | --- | --- | --- | --- | --- | --- | --- | --- | --- | --- | --- | --- | --- | --- | --- | --- | --- | --- |
| O=c1ccn([C@@H]2O[C@H](COP(=O)(O)OP(=O)(O)OP(=O)(O)O)[C@@H](O)[C@H]2O)c(=O)[nH]1 [UTP, uridine 5′-triphosphate] | 55 | 25 | 25 | medium-onset medium duration | Medium onset—medium duration |  |  |  |  |  |  |  |  |  |  |  |  |  |  |  |
| O=C([O-])[C@H](O)[C@@H](O)[C@H](O)[C@H](O)CO.[Na+] [hyperosmotic sodium gluconate, sodium gluconate] |  | 25 | 25 | medium-onset medium duration | Medium onset—medium duration |  |  |  |  |  |  |  |  |  |  |  |  |  |  |  |
| N=C(N)Nc1ccc(C(=O)Oc2ccc3cc(C(=N)N)ccc3c2)cc1 [6-amidino-2-napthyl 4-guanidinobenzoate] |  | 55 |  | slow-onset long duration | Slow onset—long duration | weak, short acting inhibitor | no increase in speed | No increase in speed | slow-onset long duration | no increase in speed | continues to exceed control transport rate | 10^−6 M |  |  |  |  |  |  |  |  |
| N=C(N)NC(=O)c1nc(Cl)c(N)nc1N [amiloride] | 25 |  | 10 | rapid onset and of short duration | Rapid onset—short duration |  |  |  |  |  |  |  | no significant difference | less than 1 h | ≤ 40 | 35 | immediate | ≤ 40 | 30 |  |
| OC[C@@H](O)[C@@H](O)[C@H](O)[C@H](O)CO [hyperosmotic mannitol, mannitol] |  | 25 | 25 | medium-onset medium duration | Medium onset—medium duration |  |  |  |  |  |  |  |  |  |  |  |  |  |  | reduced ENaC activity |
